Source: patent US20130064878A1, “WOUND HEALING COMPOSITIONS AND METHODS” (UNIVERSITY OF NOTRE DAME DU LAC, priority 2011, published 2013)

Assays:
[1] = system: skin punch biopsy lesions of female diabetic mice (db/db mice); test: Chronic wound model, two 6-mm skin punch biopsy lesions, topical treatment; format: in vivo, mouse
Protocol: Female diabetic mice (db/db mice, 9-10 weeks old, Jackson Laboratory, Bar Harbour, Me.) (n=10 per group) were prepared for aseptic surgery by clipping the hair on the dorsal thorax and scrubbing the skin with betadine followed by alcohol. […] Each wound was covered with an occlusive dressing following biopsy. The mice recovered on a cage with clean bedding on a heating pad. Mice received buprenorphine subcutaneously (1.5-2.5 mg/kg) at the conclusion of surgery and again 3-5 hours later. Mice were administered 0.5 mL of warm sterile saline intraperitoneally at the conclusion of surgery. […] Wound closure was determined every day for each animal using the initial and final wound diameters, with the percentage wound closure calculated as [(initial−final)/initial]×100.
On day 12, half of the mice (n=10) were sacrificed and the wounds of each animal excised. The remaining mice continued treatment at the dosages provided above once a day until day 23, when they were sacrificed On the day of sacrifice, the wounds of each mouse were excised, and analyzed by histology, gelatin zymography and Western blot, and in situ gelatin zymography.
Female diabetic mice (db/db mice; 9-10 weeks old, Jackson Laboratory, Bar Harbour, Me.) (n=10 per group) were prepared for aseptic surgery by clipping the hair on the dorsal thorax and scrubbing the skin with betadine followed by alcohol. […] Each wound was covered with an occlusive dressing following biopsy. The mice recovered on a cage with clean bedding on a heating pad. Mice received buprenorphine subcutaneously (1.5-2.5 mg/kg) at the conclusion of surgery and again 3-5 hours later. Mice were administered 0.5 mL of warm sterile saline intraperitoneally at the conclusion of surgery. […] Wound closure was determined every day for each animal using the initial and final wound diameters, with the percentage wound closure calculated as [(initial−final)/initial]×100.
Female diabetic mice (db/db mice) (n=10 mice per group, n=2 wounds per mouse, 9-10 weeks old, Jackson Laboratory, Bar Harbour, Me.) were prepared for aseptic surgery by clipping the hair on the dorsal thorax and scrubbing the skin with betadine followed by alcohol. […] Each wound was covered with an occlusive dressing following biopsy. The mice recovered on a cage with clean bedding on a heating pad. Mice received buprenorphine subcutaneously (1.5-2.5 mg/kg) at the conclusion of surgery and again 3-5 hours later. Mice were administered 0.5 mL of warm sterile saline intraperitoneally at the conclusion of surgery. […] Wound closure was determined every day for each animal using the initial and final wound diameters, with the percentage wound closure calculated as [(initial−final)/initial]×100.

[2] = system: wound gelatinolytic activity; test: In situ gelatin zymography of wound tissue (Example 3); format: in vivo, mouse; conditions: day 13; 0.25 mg/wound; compared to vehicle
Protocol: On day 7, half of the mice (n=10) were sacrificed and the wounds of each animal excised. […] On the day of sacrifice, the wounds of each mouse were excised, and analyzed by histology, gelatin zymography and Western blot, and in situ gelatin zymography. Specifically, one wound from each sacrificed animal was analyzed by in situ gelatin zymography, and one wound from each sacrificed animal was analyzed by gelatin zymography, followed by Western blot.
FIG. 2(A) is a graph of the wound closure measurements, determined every day of the study as [(initial−final)/initial]×100. […] FIG. 2(C) is a photograph of a representative skin lesion of a mouse treated with saline on day 13. […] Wound gelatinolytic activity is visualized using fluorescein isothiocyanate (FITC)-labeled substrate (right images), and 4′,6-diamidino-2-phenylindole (DAPI)-labeled […] (left images). […] Thus, gelatinolytic activity was suppressed in the gelatinase inhibitor-treated group (FIG. 2 (D)).

[3] = system: wounds of female diabetic db/db mice; test: Excisional diabetic wound model, single 8-mm wound, topical treatment; format: in vivo, mouse
Description: (§1) Single excisional wounds 8-mm in diameter were made with a biopsy punch (Miltex, York, Pa., USA) using aseptic technique in the shaved dorsal regions of female diabetic db/db mice and female wild-type mice under isoflurane anesthesia. […] Wounds were photographed and immediately covered with a sterile dressing (3M Tegaderm™ Transparent Dressing, Butler Schein Animal Health, Inc., Dublin, Ohio). Cellulose acetate collars were made in-house from expired films and mounted on the wild-type mice to prevent them from disturbing the wounds on their back. […] On days 1, 3, 7, 10, and 14, digital photographs of wounds were taken while animals were under isoflurane anesthesia. […] The wounds with minimal surrounding healthy tissue were excised and either flash-frozen in liquid nitrogen for protein expression profiling or embedded in optimal cutting temperature (OCT) compound (Tissue-Tek, Torrance, Calif., USA) followed by cryosectioning for histological assessment.
(§2) Digital images were analyzed for wound areas using the NIH ImageJ version 1.45 software. Photographs of each wound were taken using a digital camera (Olympus SP-800UZ, Center Valley, Pa., USA), which was statically mounted on a tripod at a fixed distance above the mouse wound. A ruler was included in the photographic frame to allow ImageJ calibration. The wound outline was defined from the photographic image and the ImageJ software calculated the wound area. Wound closure was expressed as the change in wound area relative to that from day 0.
(§3) Wound closures are expressed as mean±SD (n=35 on day 1; n=28 on day 3; n=21 on day 7; n=14 on day 10; n=7 on day 14). Wound closures and levels of MMP-8 and MMP-9 were analyzed using a paired Student t-test; p<0.05 was considered statistically significant.
(§4) Fresh wound tissue was cut, embedded in OCT compound, and cryosectioned at a thickness of 12-μm in preparation for hematoxylin-eosin (H&E) staining. Morphological assessment of re-epithelialization was performed on a Nikon Eclipse 90i Fluorescent Microscope (Nikon Instruments Inc., Melville, N.Y., USA) (Tkalcevic et al., Toxicol. Pathol. 37 (2), 183-192 (2009)). In situ gelatin zymography was performed as described (Oh et al., J. Neurosci. 19 (19), 8464-8475 (1999)). Briefly, unfixed cryostat sections (12-μm-thick) of wound tissues were incubated in a reaction buffer (50 mM TBS pH 7.6) containing DQ-gelatin conjugate (Molecular Probes, Eugene, Oreg., USA) at 37° C. for 6 h. After fixation in 4% paraformaldehyde in PBS, cells were counterstained with DAPI (Molecular Probes, Eugene, Oreg., USA) and the images were visualized by fluorescence microscopy.

[4] = system: wounds of female wild-type mice; test: Excisional wound model, single 8-mm wound, topical treatment, wild-type mice; format: in vivo, mouse
Description: as §1, §2, §3, §4

[5] = system: gelatinase activity in wound tissues of diabetic mice; test: In-situ gelatin zymography with DQ-gelatin (Example 5); format: in vivo, mouse; conditions: db/db mice; compared to vehicle
Protocol: as §4

[6] = system: animal models of cancer metastasis, stroke, hemorrhage, spinal cord and brain injury; conditions: prostate, breast cancer and T-cell lymphoma metastasis, ischemic stroke, subarachnoid hemorrhage, traumatic brain injury, testosterone-induced neurogenesis; cited from earlier work

Structure (SMILES): Nc1ccc(Oc2ccc(S(=O)(=O)CC3CS3)cc2)cc1 (stereo not shown) [p-amino SB-3CT]
- difference in wound healing between treated and vehicle groups ([1]; Example 3, 0.25 mg/wound once per day, 13 days, vehicle saline): Significant differences in wound healing
- wound closure ([1]; day 6, 0.25 mg/wound topical once per day, vehicle saline, db/db mice): 37.0±9.5%
- wound gelatinolytic activity (in situ gelatin zymography) [2]: suppression of gelatinolytic activity

Structure (SMILES): Nc1ccc(Oc2ccc(S(=O)(=O)CC3CS3)cc2)cc1 (stereo not shown) [ND-322]
- effect on wound healing compared to vehicle ([3]; 0.25 mg/wound/day topical): accelerated wound healing
- wound closure ([3]; day 10, 0.25 mg/wound/day topical, n=14, p<0.05 vs vehicle): 70±16%
- re-epithelialization (H&E staining) ([3]; day 14): complete re-epithelialization
- wound closure ([3]; day 14, 0.25 mg/wound/day topical, n=7, p<0.01 vs vehicle): 92±4%
- difference in wound closure vs vehicle ([3]; days 1, 3, and 7, p>0.2): not statistically significant
- effect on wound healing compared to vehicle ([4]; 0.25 mg/wound/day topical, p>0.25): did not accelerate healing
- wound closure ([4]; day 7, 0.25 mg/wound/day topical, n=21): 62±19%
- wound closure ([4]; day 10, 0.25 mg/wound/day topical, n=14): 82±11%
- re-epithelialization (H&E staining) ([4]; day 14): completely re-epithelialized
- wound closure ([4]; day 14, 0.25 mg/wound/day topical, n=7): 96±4%
- gelatinase activity in wound tissues (in-situ zymography) [5]: significantly decreased

Structure (SMILES): O=S(=O)(CC1CS1)c1ccc(Oc2ccccc2)cc1 (stereo not shown) [SB-3CT, 2-(((4-phenoxyphenyl)sulfonyl)methyl)thiirane]
- wound closure ([1]; at 13-14 days, SB-3CT-treated db/db mice (0.25 or 1.25 mg/wound per day)): > 90%
- wound closure ([1]; day 6, 0.25 mg/wound per day topical, vehicle DMSO, db/db mice): 49.6±14.0%
- wound closure ([1]; day 6, 1.25 mg/wound per day topical, vehicle DMSO, db/db mice): 50.0±7.4%
- difference in wound closure between vehicle and treated mice ([1]; starting on day 2, db/db mice, Example 1): Significant differences (p<0.05)
- efficacy in animal models [6]: effective
